# Results as given in patent US9422335B2, “Modified toll-like receptor 2 (TLR2) ligands as inhibitors of neutrophil recruitment” (priority 2011, dated 2016).
# Entries after “also recorded” stand apart in the source; their conditions may differ.
# Legend:
# [1] = test system: bone marrow-derived macrophages; test: Internalization of FITC-FSL1/GML; assay type: cell-based, mice
# Experimental: Bone marrow-derived macrophages were isolated from wild-type and TLR2−/− mice and cultured on glass coverslips. The cells were incubated on ice for 10 min in the presence of 10 μg/mL FITC-FSL1 or FITC-GML to allow ligands binding and then returned to 37° C. for 60 min. Cells were then fixed for 10 minutes in 4.5% paraformaldehyde and stained for the golgi marker Giantin (1:250, Abcam), and imaged using confocal microscopy.
# [2] = severe sepsis; decreased from about 31%; cited from earlier work
# [3] = test system: neutrophil emigration into the cremaster tissue; test: Intravital microscopy of cremaster muscle after intrascrotal injection; assay type: in vivo, mice; conditions: for effect of antagonist pretreatment on LTA and GML inhibition of TNFα-induced neutrophil recruitment: 0.5 μg, 1.5 hr pre-treatment; for inhibitory properties toward LPS-induced neutrophil emigration: LPS 10 ng/g plus ligand 5 ng/g, 4.5 hours; for neutrophil recruitment induced by the ligand itself: wild-type mice, intrascrotal injection, 4.5 hr
# Experimental: Intravital microscopy was performed on male mice, anaesthetized with an intraperitoneal injection of a 10 mg/kg xylazine (Bayer) and 200 mg/kg ketamine hydrochloride (Rogar/STB). The left jugular vein was cannulated to administer additional anaesthetic when necessary. An incision in the scrotal skin exposed the left cremaster muscle, which was then carefully dissected free of the associated fascia. The cremaster muscle was cut longitudinally with a cautery pen. The testicle and the epididymis were then separated from the underlying muscle and were moved into the abdominal cavity. The muscle was held flat on an optically clear viewing pedestal and was secured along the edges with 4-0 suture. The exposed tissue was superfused with 37° C.-warmed bicarbonate-buffered saline (pH 7.4). An upright microscope (Mikron; Carl Zeiss) was used to examine the cremasteric microcirculation and a video camera (XR/MEGA10-AM or XR/MEGA10 Panasonic) and DVD recorder were used to capture images. Three to five cremasteric venules (25 to 40 μm in diameter) were analysed during playback analysis. A leukocyte was considered to be adherent if it remained stationary for at least 30 seconds, and total leukocyte adhesion was quantified as the number of adherent cells within a 100-μm length of venule. Leukocyte emigration was defined as the number of cells in the extravascular space within the field of view adjacent to the observed venule.
# [4] = test system: MIP2-induced neutrophil emigration; test: Intravital microscopy of exteriorized cremaster superfused with MIP2; assay type: in vivo, mice; conditions: 0.5 μg, 1.5 hr pre-treatment; superfusion 60 min
# Experimental: Intravital microscopy was performed on male mice, anaesthetized with an intraperitoneal injection of a 10 mg/kg xylazine (Bayer) and 200 mg/kg ketamine hydrochloride (Rogar/STB). The left jugular vein was cannulated to administer additional anaesthetic when necessary. An incision in the scrotal skin exposed the left cremaster muscle, which was then carefully dissected free of the associated fascia. The cremaster muscle was cut longitudinally with a cautery pen. The testicle and the epididymis were then separated from the underlying muscle and were moved into the abdominal cavity. The muscle was held flat on an optically clear viewing pedestal and was secured along the edges with 4-0 suture. The exposed tissue was superfused with 37° C.-warmed bicarbonate-buffered saline (pH 7.4). An upright microscope (Mikron; Carl Zeiss) was used to examine the cremasteric microcirculation and a video camera (XR/MEGA10-AM or XR/MEGA10 Panasonic) and DVD recorder were used to capture images. Three to five cremasteric venules (25 to 40 μm in diameter) were analysed during playback analysis. A leukocyte was considered to be adherent if it remained stationary for at least 30 seconds, and total leukocyte adhesion was quantified as the number of adherent cells within a 100-μm length of venule. […]
Compound,effect of antagonist pretreatment on LTA and GML inhibition of TNFα-induced neutrophil recruitment [3],effect of antagonist pretreatment on LTA and GML inhibition of MIP2-induced neutrophil recruitment [4],inhibitory properties toward LPS-induced neutrophil emigration [3],neutrophil recruitment induced by the ligand itself [3],also measured
FSL1,–,–,–,–,"internalization / localization of FITC-labelled ligand ([1]; in the absence of TLR2): substantially inhibited with regard to internalization; localization of internalized FITC-labelled ligand ([1]; wild-type macrophages, 60 min, Giantin stain): much smaller vesicles, which did not co-localize with Giantin"
drotrecogin alfa,–,–,–,–,mortality [2]: about 25%
O=C(Nc1ccncc1)c1cc([N+](=O)[O-])ccc1Cl [T0070907],abrogated the inhibitory effect of both LTA and GML,abrogated the inhibitory effect of both LTA and GML,–,–,–
O=C(Nc1ccccc1)c1cc([N+](=O)[O-])ccc1Cl [GW9662],abrogated the inhibitory effect of both LTA and GML,abrogated the inhibitory effect of both LTA and GML,–,–,–
Pam3CSK4,–,–,did not exhibit any inhibitory properties,pro-inflammatory; also recorded: causes significant neutrophil recruitment into the cremaster tissue,–
Pam2CSK4,–,–,did not exhibit any inhibitory properties,pro-inflammatory,–
